Test results as given in US10344330B2, “Glatiramer acetate response biomarker mRNA potency assay” (Mylan Inc., priority 2013, dated 2019).

System: mouse IFN-γ mRNA in primary LN cells
Test: Validation: mouse IFN-γ mRNA by real-time PCR in LN cells of GA-immunized SJL/J mice (Example IV)
Type: cell-based
Settings: for IFN-γ mRNA Fold Change: normalized to GAPDH
Method: Three experiments were conducted using one batch of GA (Mylan GMA). The primary LN cells were stimulated by incubation with 6 concentrations (0.3 to 20 μg/mL) of the GA for 6 hours at 37° C. Total RNA was isolated from LN cells stimulated with GA or controls. cDNA was synthesized from the RNA and the mRNA levels of seven mouse cytokines, IL-2, IL-4, IL-5, IL-10, IL-13, interferon (IFN)-γ and tumor necrosis factor (TNF)-α, were quantitatively measured by a real-time PCR method.
Female SJL/J mice at 8-9 weeks of age were immunized by injection into four footpads using a 1 mL syringe with a 27-G, ½-inch needle. Each mouse received a total injection volume of 0.1 mL of GMA emulsified in CFA (about 10 μL into each of the front footpads and 40 μL into each of the hind footpads). Animals were immunized on Day 0. After injection, animals were placed back in their cages and housed ≤6 animals per cage.
Immunized animals were sacrificed by cervical dislocation on Day 10 following immunization. […] After centrifugation at about 200×g for 10 minutes at 4° C., the cell pellet was re-suspended in 40 mL of DCCM-1 medium for cell counting. A Trypan blue exclusion method was used to determine the cell density of viable cells in the suspension. After cell counting, the LN cells were suspended in enriched DCCM-1 medium at density of 7.5×10^6 cells/mL. LN cells (0.12 mL) were plated into each well of 96-well tissue culture plates.
Dilutions of GA (Mylan GMA) were prepared using enriched DCCM-1 medium as the diluent. GA dilutions (0.12 mL) were added in the assigned wells of 96-well tissue culture plates. The same volume of LN cells (0.12 mL) isolated from immunized animals was added to the assigned wells. A positive control and a negative control were always performed in the same assay by treating LN cells with 2.5 μg/mL ConA and 10 μg/mL MBP, respectively. The LN cells with mock stimulation protocols (enriched DCCM-1 medium) were used to monitor the background mRNA level of a cytokine. The plates were incubated at 37° C. in a humidified 5% CO2 incubator for 6 hr.
At the end of incubation time, culture medium from stimulated cells was removed by aspiration and the cells were lysed using Qiagen or Promega lysis buffer. The lysate was transferred to an RNeasy Mini column (Qiagen) or wells of the SV 96 Binding Plate (Promega) for RNA isolation and cDNA synthesis. All tested samples were run in triplicate.
The SV 96 Total RNA Isolation System (Promega; Cat. No. Z3505) was used for total RNA isolation. Assay procedures were carried out according to each manufacturer's protocol. RNA samples were stored at −70° C. until use. […] The assay procedure was carried out according to the manufacturer's protocol.
The plate was centrifuged at 2000 rpm for 2 minutes at 4° C. to spin down the contents and eliminate air bubbles. Samples were prepared and run in a 96-well plate using a Life Technologies Real-Time PCR system (previously Applied Biosystems; Model No. 7500) according to the manufacturer's recommendation. The mix for the reference gene was prepared in the same way using the reference gene primer.
A relative quantitation method was used to analyze changes in mIL-2, mIL-4, mIL-5, mIL-10, mIL-13, mIFN-γ and TNF-α expression in GA treated samples relative to the untreated control (Enriched DCCM-1 treated) samples using the following program:
Levels of mouse cytokine amplicons were normalized to an internal probe level (GAPDH) from the same samples. The following equations were used to calculate the relative increase in response to GA stimulation compared to the control sample (Enriched DCCM1 sample): […]

Concanavalin A [ConA, reference compound]
IFN-γ mRNA Fold Change (Experiment 1, 2.5 μg/mL): 1.9 fold
IFN-γ mRNA Fold Change (Experiment 2, 2.5 μg/mL): 1.6 fold
IFN-γ mRNA Fold Change (Experiment 3, 2.5 μg/mL): 2.6 fold

L-glutamic acid polymer with L-alanine, L-lysine and L-tyrosine, acetate (salt) [GA]
induction of IFN-γ mRNA (in words) (SJL/J, different concentrations of GA vs unstimulated LN cells): weak induction
induction of IFN-γ mRNA (SJL/J, stimulation with 2.5 to 10 μg/mL GA, three experiments): ≥ 2 fold

B1: MBP: myelin basic protein, a negative control (protein, UniProt P02686 1-304, looked up)
Myelin basic protein: MGNHAGKRELNAEKASTNSETNRGESEKKRNLGELSRTTSEDNEVFGEADANQNNGTSSQDTAVTDSKRTADPKNAWQDAHPADPGSRPHLIRLFSRDAPGREDNTFKDRPSESDELQTIQEDSAATSESLDVMASQKRPSQRHGSKYLATASTMDHARHGFLPRHRDTGILDSIGRFFGGDRGAPKRGSGKDSHHPARTAHYGSLPQKSHGRTQDENPVVHFFKNIVTPRTPPPSQGKGRGLSLSRFSWGAEGQRPGFGYGGRASDYKSAHKGFKGVDAQGTLSKIFKLGGRDSRSGSPMARR
IFN-γ mRNA Fold Change (Experiment 1, 10 μg/mL): 0.8 fold
IFN-γ mRNA Fold Change (Experiment 2, 10 μg/mL): 1.3 fold
IFN-γ mRNA Fold Change (Experiment 3, 10 μg/mL): 1.1 fold
IFN-γ mRNA expression level in response to MBP treatment (SJL/J, MBP 10 μg/mL, all PCR runs): ≤ 2 fold
